Data from US10718006B2, “Methods for detecting beta-lactamase-producing bacteria” (priority 2015, dated 2020).

How the values were obtained:
[1] = tested on: ESBL+ E. coli strain; assay: ESBL+ E. coli cultured with cefotaxime with or without clavulanate potassium; assay type: cell-based
Protocol: FIG. 4: Cyclic voltammograms (v=50 mV·s^−1) recorded with a screen-printed sensor for the E. coli strain ESBL^+ cultured in a culture medium containing only 4 μg·mL^−1 of cefotaxime (A) or supplemented with 10 μg·mL^−1 of clavulanate potassium, then centrifuged (1 mL; 7000 g; 10 min) before a step of incubation of the pellet with 50 μL in a 500-μM solution of nitrocefin in PBS for 10 min.
Since the hyperproduced cephalosporinases and the carbapenemases can also hydrolyse cefotaxime, the bacteria producing these enzymes can also give a positive response in the presence of cefotaxime. In order to distinguish the bacteria producing extended-spectrum beta-lactamases and the bacteria producing hyperproduced cephalosporinases and carbapenemases, the bacteria were cultured simultaneously in two culture media, one containing cefotaxime as antibiotic, the other additionally containing clavulanate potassium as inhibitor of ESBLs. After recovering the bacteria, the bacterial pellets were incubated with nitrocefin as substrate.

[2] = Cyclic voltammetry of nitrocefin and its form hydrolyzed by ESBL; assay type: physicochemical; settings: screen-printed carbon electrodes; for peak of irreversible anodic oxidation (a1): PBS pH 7.0
Description: Each sensor consists of the working electrode and a counter-electrode. The working area of the sensor (7.07 mm^2) is delimited with an adhesive ring, which also allows the electrochemical cell to be defined. For carrying out amperometric measurement, the sensor is inserted in a connector (Dropsens) connected to the potentiostat, and then a 20-μL drop of the solution to be analyzed is deposited on the surface of the sensor. After immersing a silver wire coated with a silver chloride precipitate (Ag/AgCl), which constitutes the reference electrode, the measurements are carried out by cyclic voltammetry (v=50 mV·s^−1) at ambient temperature.
5 μL of ESBL solution is put in a polypropylene tube containing 45 μL of 0.5 mM nitrocefin solution in phosphate buffer (PBS; 100 mM; pH=7.0). After a step of incubation for 10 minutes at ambient temperature in the dark, 20 μL of the mixture is taken and transferred onto the surface of the screen-printed carbon sensor. A reference electrode (Ag/AgCl) is then immersed in the 20 μL of solution previously deposited, and the cyclic voltammetry measurements are carried out by proceeding as follows: potential scanning between −0.4 V and 1.2 V at a rate of 50 mV·s^−1.
The oxidation peak appearing at about +0.3 V results from hydrolysis of the beta-lactam ring of nitrocefin and may be selected as the analytical response for identifying beta-lactamases in a sample.
Nitrocefin was hydrolyzed by an extended-spectrum beta-lactamase in an abundant quantity. The voltammetric behaviour of nitrocefin (S) and of its hydrolyzed form (P) was investigated by cyclic voltammetry using screen-printed electrodes based on carbon. Nitrocefin and hydrolyzed nitrocefin both have a peak of irreversible anodic oxidation (a1) at about +1.0 V vs. Ag/AgCl. This peak may be attributed to oxidation of the thiol group in the dihydrothiazine group or to other functions specific to the cephalosporin derivatives. […]

[3] = tested on: E. coli strains ESBL+ (MIAE6690) and ESBL− (K12); assay: Voltammetric detection of ESBL-producing E. coli with nitrocefin; assay type: cell-based; settings: pellet incubated 10 min with 500 μM nitrocefin
Protocol: Then 1 mL of each bacterial suspension is transferred to a polypropylene tube and centrifuged at 7000 g for 10 min. After removing the supernatant, a volume of 50 μL of nitrocefin solution (0.5 mM in PBS) is put in the tube and incubated with the bacterial pellet for 10 min at ambient temperature in the dark. The liquid is then aspirated and transferred onto the screen-printed sensor to carry out the voltammetric measurement as stated in section 1.3.
To evaluate the capacity of the voltammetric method for detecting the ESBL-producing bacteria, two strains of E. coli with a well-characterized genotype were selected, one being a producer of an ESBL (ESBL^+) and the other not producing ESBL (ESBL^−). First the two strains are cultured in LB medium containing 4 μg·mL^−1 of cefotaxime. After the centrifugation step, the respective bacterial pellets of these two strains are incubated with nitrocefin as substrate. […] The culture medium supplemented with cefotaxime and the medium without antibiotic were also subjected to voltammetric measurement. No specific signal is observed in the potential range [0.1-0.6 V vs. Ag/AgCl] for these two media, which confirms that neither the LB culture medium, nor cefotaxime interferes with voltammetric detection.

[4] = tested on: E. coli strains ESBL+ (MIAE6690) and ESBL− (K12); assay: Optical density of E. coli strains cultured with cefotaxime; assay type: cell-based

With O=C(O)[C@H]1/C(=C/CO)O[C@@H]2CC(=O)N21 [clavulanate potassium] the “anodic peak resulting from hydrolysis of nitrocefin” value ([1]; ESBL+ strain cultured with 4 μg·mL^−1 cefotaxime and 10 μg·mL^−1 clavulanate potassium) was “no signal was recorded” and the “E. coli count on selective medium” value ([1]; culture with cefotaxime supplemented with an inhibitor (clavulanate potassium)) was 80 CFU·mL^−1.
In the case of O=C(Cc1cccs1)N[C@@H]1C(=O)N2C(C(=O)O)=C(/C=C/c3ccc([N+](=O)[O-])cc3[N+](=O)[O-])CS[C@H]12 [nitrocefin], the “peak of irreversible anodic oxidation (a1)” value [2] was “about +1.0 V vs. Ag/AgCl”, the “anodic peak associated with hydrolysis of the β-lactam ring of nitrocefin” value ([3]; ESBL+ E. coli strain) was “about +0.4 V vs. Ag/AgCl” and the “anodic peak associated with hydrolysis of the β-lactam ring of nitrocefin” value ([3]; ESBL− E. coli strain) was “no peak is recorded”.
For CO/N=C(\C(=O)N[C@@H]1C(=O)N2C(C(=O)O)=C(COC(C)=O)CS[C@H]12)c1csc(N)n1 [cefotaxime], the “E. coli count on selective medium” value ([1]; culture with cefotaxime without inhibitor) was 1.8×10^8 CFU·mL^−1, the optical density ([4]; ESBL+ E. coli strain cultured in LB with 4 μg·mL^−1 cefotaxime) was 0.934 and the optical density ([4]; ESBL− E. coli strain cultured in LB with 4 μg·mL^−1 cefotaxime) was 0.002.
In the case of O=C(Cc1cccs1)NC(C(=O)O)C1NC(C(=O)O)=C(C=Cc2ccc([N+](=O)[O-])cc2[N+](=O)[O-])CS1 (stereo not shown) [hydrolyzed nitrocefin], the “peak of irreversible anodic oxidation (a1)” value [2] was “about +1.0 V vs. Ag/AgCl” and the “peak of irreversible anodic oxidation (a2)” value ([2]; PBS pH 7.0, nitrocefin hydrolyzed by ESBL) was “about +0.3 V”.
